Measured values: patent US20140173781A1, “METHODS AND COMPOSITIONS FOR PRODUCING AND SELECTING TRANSGENIC WHEAT PLANTS” (PIONEER HI-BRED INTERNATIONAL, INC., priority 2012, published 2014)

How the values were obtained:
Assay type in all cases: in vivo
[1] = tested on: soybean seeds; test: Germination of soybean T1 immature seeds on glyphosate medium; conditions: 20-50 μM glyphosate; transgenic and nontransgenic soybean seeds without desiccation treatment
Protocol: (§1) T1 immature pods from transgenic soybean plants are harvested, sterilized with 15% Clorox+2 drops of Tween 20 and rinsed with autoclaved water 3 times. Immature seeds are isolated from sterilized pods and placed on sterile fiber glass filter paper in a Petri dish. The Petri dish is […] and with 20-50 μM glyphosate for selection. One to 2 weeks later, DsRed expression is checked in the emerging shoots. Immature seeds that have been properly desiccated will have very weak or no DsRed expression as the gene is excised via the LoxP sites. […] Immature seeds that successfully underwent gene excision by desiccation will have glyphosate resistance and regenerate on medium containing 20-50 μM glyphosate.

[2] = tested on: sugarcane plants; test: Glyphosate spray test on sugarcane T0 plantlets; conditions: 4× glyphosate
Protocol: T0 plantlets were then moved to soil and spray tested with 4× glyphosate to confirm excision/glyphosate resistance. […] The final confirmation of stable transformation frequency is determined based on molecular analysis such as PCR and Southern blot hybridization.

[3] = tested on: maize inbred PHR03 plants; test: Glyphosate spray test on plants germinated from T1 mature corn seed; conditions: glyphosate+surfactant at 2× or 4×
Description: Immature embryos of maize inbred PHR03 were transformed with the excision vector AGL1/PHP54353, the expression of DsRed was visually confirmed, and T0 plantlets were regenerated as described in Example 5. Before moving the T0 plantlets to soil, the expression of DsRed was again visually confirmed.
To confirm that the natural desiccation process that occurs during seed maturation would in fact allow for the excision of DsRed and resistance to glyphosate, seeds collected from T0 plants crossed with wild-type PHR03 pollen were germinated in soil. By planting seeds straight to soil without any treatments, excision would be a result of natural processes.
Three random events were chosen to be tested by this method. Five mature T1 seeds each from the following events, PHP54353 T0 event numbers 6, 7, and 10 were placed in small pots with Metro Mix soil (Sun Gro Horticulture, McFarland, Calif.) with fertilizer and placed in the greenhouse. After plants had germinated and grown to about 12-18 cm (10-12 days after planting), the plants were then sprayed with glyphosate+surfactant at 2× or 4× concentration (1× is equivalent to what is used in the field). Before spraying, all pots were evenly spaced and positioned to ensure that they would receive an even distribution of glyphosate. The distance between the sprayer nozzle and the apical meristem of the plants was approximately 18 inches. Within 10-12 days, it was visibly evident which plants were not affected by the herbicide and which plants had been severely damaged.

[4] = tested on: tobacco seeds; test: Germination of tobacco T1 immature seeds on glyphosate medium; conditions: 20-50 μM glyphosate; transgenic and nontransgenic tobacco seeds without desiccation treatment
Protocol: as §1, with “immature seeds” for “immature pods”, “transgenic tobacco” for “transgenic soybean”, “are isolated,” for “are harvested,”, “times. Sterilized immature” for “times. Immature”, “are” for “are isolated from sterilized pods and”, “desiccated” for “desiccated will”

**Q.** What does the source list for `O=C(O)CNCP(=O)(O)O` [glyphosate, N-phosphonomethylglycine]?
**A.** germination [1]: completely inhibited; Glyphosate Spray Test ([2]; independent T0 events (PHP54561, after excision) from 3 sugarcane cultivars): strong glyphosate resistance; Glyphosate Spray Test ([2]; plants of 3 nontransgenic sugarcane cultivars): completely killed; Glyphosate Spray Test ([3]; PHP54353 lab event 6 T1 plants, fraction of plants tolerant): 2/4 plants tolerant; Glyphosate Spray Test ([3]; PHP54353 lab event 7 T1 plants): 5/5 plants damaged; Glyphosate Spray Test ([3]; PHP54353 lab event 10 T1 plants): 4/4 plants damaged; Glyphosate Spray Test ([3]; PHP54353 lab event 13 T1 plants, fraction of plants tolerant): 2/5 plants tolerant; Glyphosate Spray Test ([3]; Wild-type PHR03 plants): 4/4 plants damaged; germination [4]: completely inhibited
